This passage reports Kd results from patent US20250127904A1, “SIGLEC LIGANDS, CONJUGATES, AND METHODS OF USE THEREOF” (Osprey Biopharmaceuticals, Inc., priority 2023, published 2025).

Assay [1] addresses T1, biotinylated mouse siglec-2-Fc-Avi (Mus musculus, UniProt P35329).
T1 construct: made in house
T1 sequence (P35329 22-708 limits assumed): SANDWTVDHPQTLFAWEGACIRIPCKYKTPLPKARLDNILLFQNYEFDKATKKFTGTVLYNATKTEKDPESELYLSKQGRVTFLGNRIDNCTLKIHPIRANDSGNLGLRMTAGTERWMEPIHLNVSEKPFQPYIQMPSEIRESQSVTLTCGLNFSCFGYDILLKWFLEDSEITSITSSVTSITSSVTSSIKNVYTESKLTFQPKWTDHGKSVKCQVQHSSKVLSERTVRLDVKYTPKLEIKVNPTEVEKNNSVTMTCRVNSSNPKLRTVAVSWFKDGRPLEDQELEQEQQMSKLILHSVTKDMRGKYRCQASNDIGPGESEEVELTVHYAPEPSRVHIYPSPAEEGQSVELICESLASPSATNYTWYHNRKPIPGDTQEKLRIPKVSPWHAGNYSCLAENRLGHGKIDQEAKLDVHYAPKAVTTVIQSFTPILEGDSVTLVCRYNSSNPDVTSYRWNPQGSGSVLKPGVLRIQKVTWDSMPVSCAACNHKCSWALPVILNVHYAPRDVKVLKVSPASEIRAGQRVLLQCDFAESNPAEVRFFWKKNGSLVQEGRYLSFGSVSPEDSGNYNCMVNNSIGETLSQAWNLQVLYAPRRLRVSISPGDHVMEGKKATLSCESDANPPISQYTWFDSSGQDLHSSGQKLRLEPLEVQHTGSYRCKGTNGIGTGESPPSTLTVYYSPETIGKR
The experiment in a line: SPR binding to mouse siglec-2/CD22. The note with it: steady-state analysis, read-out: Mouse CD22 affinity. The procedure: (§1) The following proteins were used for CD22 ligand binding: biotinylated human siglec-2/CD22 protein-His-Avitag (Acro Biosystems, Cat #SI2-H82E3), biotinylated mouse siglec-2-Fc-Avi (in-house production), and recombinant cynomolgus siglec-2/CD22 His-tag (R&D systems, Cat #9864-SL-050). Prior to immobilization, CD22 proteins were treated with SialoExo (Genovis, Cat #G1-SM1-020) for 4 hours at 37° C. to remove native sialic acid residues.
(§2) Capture of biotinylated CD22 constructs was performed using a Cytiva SA chip (BR100398) on a Biacore 8K instrument. Human siglec 2 was immobilized on channels 1-4 and mouse siglec 2 on channels 5-8 on the active flow cell (2) and the reference flow cell (1) was immobilized with biotinylated human FGFR2 Fc Avi, an unrelated protein, to account for any nonspecific binding. Human siglec 2 and Mouse siglec 2 were diluted in running buffer to 20 μg/mL and injected on the active flow cell (2) for 300 seconds at 5 μL/min, yielding about 3500 RU of captured constructs.
(§3) Binding experiments of siglec-ligand conjugated proteins or Siglec ligand compounds were performed on the surfaces prepared above in 10 mM HEPES, 150 mM NaCl, 0.05% Tween-20, pH 7.5, 1% DMSO as the running buffer. Compounds were serially diluted in running buffer from 50 μM to 97.6 nM and injected over both the reference and active flow cells for 90 seconds at 30 μL/min. The compounds were then allowed to dissociate from the surface for 120 seconds. No regeneration was required as the compounds completely dissociated from the surface after 30 seconds. Solvent correction was performed using 0.5, 1, 1.5, and 2% DMSO spike into running buffer without DMSO. Data was analyzed using steady-state analysis in Biacore Insight Evaluation Software, version 3.0.

The target of assay [2] is T2, biotinylated human siglec-2/CD22 protein-His-Avitag (Homo sapiens, UniProt P20273).
T2 construct: purchased Acro Biosystems SI2-H82E3
T2 sequence (P20273 20-847): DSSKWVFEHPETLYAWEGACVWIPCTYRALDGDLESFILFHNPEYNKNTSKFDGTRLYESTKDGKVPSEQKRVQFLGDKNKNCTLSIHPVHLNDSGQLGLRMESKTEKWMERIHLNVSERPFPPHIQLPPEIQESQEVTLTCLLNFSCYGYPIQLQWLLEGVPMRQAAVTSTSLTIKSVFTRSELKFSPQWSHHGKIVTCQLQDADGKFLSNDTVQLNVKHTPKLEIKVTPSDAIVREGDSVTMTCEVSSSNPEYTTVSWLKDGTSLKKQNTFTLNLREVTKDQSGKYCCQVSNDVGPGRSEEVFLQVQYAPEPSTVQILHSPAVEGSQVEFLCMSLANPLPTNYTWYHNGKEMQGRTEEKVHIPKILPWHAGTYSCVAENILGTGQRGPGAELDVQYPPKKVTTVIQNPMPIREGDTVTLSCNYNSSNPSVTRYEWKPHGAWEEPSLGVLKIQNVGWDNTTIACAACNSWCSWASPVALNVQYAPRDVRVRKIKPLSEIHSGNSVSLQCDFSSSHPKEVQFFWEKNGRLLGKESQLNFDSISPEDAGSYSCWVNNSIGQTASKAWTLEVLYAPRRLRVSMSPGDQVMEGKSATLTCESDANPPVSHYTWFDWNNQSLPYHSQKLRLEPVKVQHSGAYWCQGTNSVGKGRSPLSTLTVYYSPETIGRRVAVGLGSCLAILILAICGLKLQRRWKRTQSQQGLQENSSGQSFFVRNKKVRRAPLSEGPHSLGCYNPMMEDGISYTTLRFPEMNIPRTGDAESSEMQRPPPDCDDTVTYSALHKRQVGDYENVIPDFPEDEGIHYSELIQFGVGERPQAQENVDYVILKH
In words: SPR binding to human siglec-2/CD22. The note with it: steady-state analysis, read-out: Human CD22 affinity. The procedure:
as §1, §2, §3

Assay [3] addresses recombinant cynomolgus siglec-2/CD22 His-tag (Macaca fascicularis, UniProt A0A2K5WCZ6). The experiment in a line: SPR binding to cynomolgus siglec-2/CD22. The note with it: steady-state analysis, read-out: Cyno CD22 affinity. How it is done: as §1
Surface preparation for cyno CD22 protein consisted of amine coupling to Cytiva CM5 chip (Cytiva, Cat #BR100530) using the Cytiva amine coupling kit Type 2 (Cytiva, Cat #BR100633). Following the standard amine coupling protocols, EDC and NHS from the kit were mixed 1:1 and injected over flow cells 1 and 2. Cyno CD22 was then immobilized by injecting 10 μg/mL in Sodium Acetate, pH 5.5 onto flow cell (2) for 420 seconds at 10 uL/min, yielding approximately 2500 RU of captured protein. Any active carboxy groups were then capped with 1M Ethanolamine, pH 8.5 for 420 s on flow cells 1 and 2.
as §3

recombinant cynomolgus siglec-2/CD22 His-tag, sequence (A0A2K5WCZ6 entry or part of it): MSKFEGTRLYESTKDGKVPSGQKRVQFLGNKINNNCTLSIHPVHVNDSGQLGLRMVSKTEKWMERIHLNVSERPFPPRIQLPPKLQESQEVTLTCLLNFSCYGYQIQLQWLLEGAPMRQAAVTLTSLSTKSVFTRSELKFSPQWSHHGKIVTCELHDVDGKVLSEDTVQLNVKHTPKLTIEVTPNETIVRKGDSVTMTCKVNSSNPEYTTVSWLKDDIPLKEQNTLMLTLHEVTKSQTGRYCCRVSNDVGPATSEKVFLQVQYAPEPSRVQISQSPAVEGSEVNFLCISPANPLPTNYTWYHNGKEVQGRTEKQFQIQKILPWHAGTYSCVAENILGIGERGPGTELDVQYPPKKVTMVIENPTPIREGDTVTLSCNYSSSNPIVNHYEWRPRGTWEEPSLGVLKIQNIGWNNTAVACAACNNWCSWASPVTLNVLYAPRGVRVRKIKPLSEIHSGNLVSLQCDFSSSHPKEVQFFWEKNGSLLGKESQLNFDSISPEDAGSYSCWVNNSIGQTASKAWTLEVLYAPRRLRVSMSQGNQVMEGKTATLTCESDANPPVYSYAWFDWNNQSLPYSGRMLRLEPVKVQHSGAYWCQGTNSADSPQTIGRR

Regarding `C#CCOCCOCCOCCC(=O)N[C@H]1[C@H]([C@H](O)[C@H](O)CNC(=O)Cc2ccc(Cl)cc2)O[C@@](OCc2ccccc2)(C(=O)O)C[C@@H]1O` [Compound 21, (2R,4S,5R,6R)-2-(benzyloxy)-6-((1R,2R)-3-(2-(4-chlorophenyl)acetamido)-1,2-dihydroxypropyl)-4-hydroxy-5-(3-(2-(2-(prop-2-yn-1-yloxy)ethoxy)ethoxy)propanamido)tetrahydro-2H-pyran-2-carboxylic acid], the results for the Kd in assay [1], in assay [2] and in assay [3] were over 10000 nM, 1000 to 10000 nM and 1000 to 10000 nM, respectively.

Take `C#CCOCCOCCOCCOCCOCCNC(=O)N[C@H]1[C@H]([C@H](O)[C@H](O)CNC(=O)Cc2ccc(Cl)cc2)O[C@@](OCc2ccccc2)(C(=O)O)C[C@@H]1O` [Compound 22, (2R,4S,5R,6R)-5-(3-(3,6,9,12,15-pentaoxaoctadec-17-yn-1-yl)ureido)-2-(benzyloxy)-6-((1R,2R)-3-(2-(4-chlorophenyl)acetamido)-1,2-dihydroxypropyl)-4-hydroxytetrahydro-2H-pyran-2-carboxylic acid]: the results for the Kd in assay [1], in assay [2] and in assay [3] were 1000 to 10000 nM, over 10000 nM and 1000 to 10000 nM, respectively.

Turning to `C#Cc1ccc(CC(=O)NC[C@@H](O)[C@@H](O)[C@@H]2O[C@@](OCCOCCOCCOC)(C(=O)O)C[C@H](O)[C@H]2NC(=O)CO)cc1` [Compound 25, (2R,4S,5R,6R)-6-((1R,2R)-3-(2-(4-ethynylphenyl)acetamido)-1,2-dihydroxypropyl)-4-hydroxy-5-(2-hydroxyacetamido)-2-(2-(2-(2-methoxyethoxy)ethoxy)ethoxy)tetrahydro-2H-pyran-2-carboxylic acid], the Kd in assay [1], in assay [2] and in assay [3] was 1000 to 10000 nM in each case.

Take `C#Cc1ccc(CC(=O)NC[C@@H](O)[C@@H](O)[C@@H]2O[C@@](OCCCCCCc3cn(CCOCCOC)nn3)(C(=O)O)C[C@H](O)[C@H]2NC(=O)CO)cc1` [Compound 27, (2R,4S,5R,6R)-6-((1R,2R)-3-(2-(4-ethynylphenyl)acetamido)-1,2-dihydroxypropyl)-4-hydroxy-5-(2-hydroxyacetamido)-2-((6-(1-(2-(2-methoxyethoxy)ethyl)-1H-1,2,3-triazol-4-yl)hexyl)oxy)tetrahydro-2H-pyran-2-carboxylic acid]: the Kd in assay [1], in assay [2] and in assay [3] was under 1000 nM throughout.

For `C#Cc1ccc(CC(=O)NC[C@@H](O)[C@@H](O)[C@@H]2O[C@@](OCCCCCCn3cc(COCCOC)nn3)(C(=O)O)C[C@H](O)[C@H]2NC(=O)CO)cc1` [Compound 28, (2R,4S,5R,6R)-6-((1R,2R)-3-(2-(4-ethynylphenyl)acetamido)-1,2-dihydroxypropyl)-4-hydroxy-5-(2-hydroxyacetamido)-2-((6-(4-((2-methoxyethoxy)methyl)-1H-1,2,3-triazol-1-yl)hexyl)oxy)tetrahydro-2H-pyran-2-carboxylic acid], the Kd in assay [1], in assay [2] and in assay [3] was under 1000 nM in each case.

For the compound `CCCNC(=O)CCOCCOCCOCCOCCn1cc(-c2ccc(CC(=O)NC[C@@H](O)[C@@H](O)[C@@H]3O[C@@](OCCCCCCOC)(C(=O)O)C[C@H](O)[C@H]3NC(=O)CO)cc2)nn1` [Compound 52, (2R,4S,5R,6R)-6-((1R,2R)-1,2-dihydroxy-3-(2-(4-(1-(15-oxo-3,6,9,12-tetraoxa-16-azanonadecyl)-1H-1,2,3-triazol-4-yl)phenyl)acetamido)propyl)-4-hydroxy-5-(2-hydroxyacetamido)-2-((6-methoxyhexyl)oxy)tetrahydro-2H-pyran-2-carboxylic acid], the Kd in assay [1], in assay [2] and in assay [3] was 1000 to 10000 nM throughout.

For `CCCNC(=O)CCOCCOCCOCCOCCn1cc(-c2ccc(CC(=O)NC[C@@H](O)[C@@H](O)[C@@H]3O[C@@](OCCCCCCNc4c(NCCOC)c(=O)c4=O)(C(=O)O)C[C@H](O)[C@H]3NC(=O)CO)cc2)nn1` [Compound 53, (2R,4S,5R,6R)-6-((1R,2R)-1,2-dihydroxy-3-(2-(4-(1-(15-oxo-3,6,9,12-tetraoxa-16-azanonadecyl)-1H-1,2,3-triazol-4-yl)phenyl)acetamido)propyl)-4-hydroxy-5-(2-hydroxyacetamido)-2-((6-((2-((2-methoxyethyl)amino)-3,4-dioxocyclobut-1-en-1-yl)amino)hexyl)oxy)tetrahydro-2H-pyran-2-carboxylic acid], the values for the Kd in assay [1], in assay [2] and in assay [3] were 1000 to 10000 nM, under 1000 nM and under 1000 nM, respectively.

As for `CCCNC(=O)CCOCCOCCOCCOCCn1cc(-c2ccc(CC(=O)NC[C@@H](O)[C@@H](O)[C@@H]3O[C@@](OCCCCCCn4cc(COCCOC)nn4)(C(=O)O)C[C@H](O)[C@H]3NC(=O)CO)cc2)nn1` [Compound 55, (2R,4S,5R,6R)-6-((1R,2R)-1,2-dihydroxy-3-(2-(4-(1-(15-oxo-3,6,9,12-tetraoxa-16-azanonadecyl)-1H-1,2,3-triazol-4-yl)phenyl)acetamido)propyl)-4-hydroxy-5-(2-hydroxyacetamido)-2-((6-(4-((2-methoxyethoxy)methyl)-1H-1,2,3-triazol-1-yl)hexyl)oxy)tetrahydro-2H-pyran-2-carboxylic acid], the values for the Kd in assay [1], in assay [2] and in assay [3] were 1000 to 10000 nM, under 1000 nM and 1000 to 10000 nM, respectively.
